The assay deals with T1, His6-RMDPa (Pseudomonas aeruginosa, UniProt Q9HTB6).
T1 sequence (Q9HTB6 2-304 limits assumed): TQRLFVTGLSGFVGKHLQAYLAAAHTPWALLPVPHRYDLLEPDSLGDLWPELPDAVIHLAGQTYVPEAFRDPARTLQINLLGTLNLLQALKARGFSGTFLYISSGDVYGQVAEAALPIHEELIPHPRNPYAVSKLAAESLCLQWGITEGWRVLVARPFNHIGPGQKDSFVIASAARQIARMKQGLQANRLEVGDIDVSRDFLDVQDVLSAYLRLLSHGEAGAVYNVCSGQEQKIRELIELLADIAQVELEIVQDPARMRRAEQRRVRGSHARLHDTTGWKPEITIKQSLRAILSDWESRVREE
The assay can be described thus: capillary electrophoresis and NMR of product. The format is biochemical. Particulars: with GDP-6-deoxy-D-lyxo-hexos-4-ulose; hydride donor; 37 °C, pH 7.5.

For the compound `NC(=O)C1=CN([C@@H]2O[C@H](COP(=O)(O)OP(=O)(O)OC[C@H]3O[C@@H](n4cnc5c(N)ncnc54)[C@H](OP(=O)(O)O)[C@@H]3O)[C@@H](O)[C@H]2O)C=CC1` [NADPH], the “capillary electrophoresis and NMR of product” value is “in the presence of excess NADPH, His6-RMDPa catalyzed the conversion”.

These data come from publication PMC4381037 (The FEBS journal, 2009).
